Measured values: BindingDB's records for doi:10.1016/j.bmcl.2009.01.089 (Gsk, 2009)

Biological target: T1, Gag-Pol polyprotein [1148-1435] (Human immunodeficiency virus 1, UniProt P04585)
T1 construct: 1148-1435
Assay: HIV Integrase Strand Transfer Scintillation Proximity Assay (SPA)
Description: Purified recombinant integrase was first combined in a complex with biotinylated donor DNA- streptavidin-coated SPA beads. The complex was preincubated with the test compound, and strand transfer was initiated with a radiolabeled target DNA substrate. After incubation, the incorporated radioactivity was read in a Wallac MicroBeta scintillation plate reader using a counting protocol that corrected for optical cross talk between wells.

Compound	IC50 [nM]	IC50 (pH 7.2, 37 °C) [nM]
NC(=O)c1nc(-c2nnc(Cc3ccc(F)cc3)o2)c(O)c2ncccc12 [7-{5-[(4-fluorophenyl)methyl]-1,3,4-oxadiazol-2-yl}-8-hydroxy-1,6-naphthyridine-5-carboxamide]	100	
Cc1ccc(S(=O)(=O)Nc2nc(-c3nnc(Cc4ccc(F)cc4)o3)c(O)c3ncccc23)cc1 [N-(7-{5-[(4-fluorophenyl)methyl]-1,3,4-oxadiazol-2-yl}-8-hydroxy-1,6-naphthyridin-5-yl)-4-methylbenzene-1-sulfonamide]		42
